Measurements: patent publication US20260125374A1, “PI3K-ALPHA INHIBITORS AND METHODS OF MAKING AND USING THE SAME” (Relay Therapeutics, Inc., priority 2021, published 2026)
≈ marks a conversion by molar mass, not a printed value.

Assays:
Type in all cases: physicochemical
[1] = Stability of I-1 solution during concentration (pH, temperature; chiral purity); settings: for ee % before concentration: starting value before stirring; for ee % of the product after stirring: from 98.20%
Description: To study the chiral stability of product I-1 during concentration, three batches I-1 from Prep-HPLC was tried under different conditions: 1) The ee % of the product changes from 98.20% to 78.95% after stirring over 18 h at 45-50° C. with pH 6-7. 2) The ee % of the product changes from 98.20% to 97.64% after stirring over 18 h at 20-25° C. with pH 6-7. 3) The ee % of the product changes from 98.20% to 98.15% after stirring over 18 h at 45-50° C. with pH 5-6.
Two reactions at 0.5 g I-1 (after SFC preparation) were carried out for stability study. 1) Compound is stable after stirring over 20 h at 10-20° C. with pH 4. 2) The ee % of this compound change from 98.43% to 98.16% after stirring over 20 h at 40-50° C. with pH 4.

[2] = Grinding simulation experiments
Description: About 50 mg of I-1 Form A was ground manually with a mortar and pestle for 1, 3 and 5 min. Form transformation and degree of crystallinity was evaluated by XRPD.
About 50 mg of Form A was ground manually with a mortar and pestle for 1, 3 and 5 min. Form transformation and degree of crystallinity was evaluated by XRPD.

[3] = Approximate solubility at 25° C. (visual observation)
Description: Max. volume of each solvent added was 1 mL. Approximate solubility was determined by visual observation.

[4] = Granulation simulation experiments
Description: (§1) Ethanol (without pretreatment by molecular sieve) and pure water were added drop wise to about 20 mg of I-1 Form A separately until solid is wetted sufficiently. Manually grind the samples with a mortar and pestle for about 5 min. Samples were dried under ambient condition for 10 min. Form transformation and degree of crystallinity were evaluated by XRPD.
as §1, with “of” for “of I-1”

## N#Cc1c(-c2cc(NC(=O)c3cc(F)cc(C(F)(F)F)c3)c3c(c2)C(=O)N[C@H]3c2cc(F)ccc2Cl)ccc2ncnn12 [Compound I-1, (R)-N-(3-(2-chloro-5-fluorophenyl)-6-(5-cyano-[1,2,4]triazolo[1,5-a]pyridin-6-yl)-1-oxoisoindolin-4-yl)-3-fluoro-5-(trifluoromethyl)benzamide]
[1]; 10-20° C. MeOH, 1N HCl, pH 4, stir for 20 h
  Purity: 99.54%
[1]; 10-20° C. MeOH, 1N HCl, pH 4, stir for 20 h, start ee 98.43%
  ee %: 98.39%
[1]; 10-20° C. MeOH, 1N HCl, pH 4, stir for 68 h
  Purity: 99.53%
[1]; 10-20° C. MeOH, 1N HCl, pH 4, stir for 68 h, start ee 98.43%
  ee %: 98.27%
[1]; 20-25° C. MeOH, pH 6-7, stir for 18 h, start ee 98.20%
  ee %: 97.64%
[1]; 40-50° C. MeOH, 1N HCl, pH 4, stir for 4 h
  Purity: 99.51%
[1]; 40-50° C. MeOH, 1N HCl, pH 4, stir for 20 h
  Purity: 99.37%
[1]; 40-50° C. MeOH, 1N HCl, pH 4, stir for 20 h, start ee 98.43%
  ee %: 98.16%
[1]; 40-50° C. MeOH, 1N HCl, pH 4, stir for 68 h, start ee 98.43%
  ee %: 97.92%
[1]; 40˜50° C. stirring for 68 h
  purity and chiral purity change in solution: slight degrade
[1]; 45-50° C. MeOH, 1N HCl, pH 5-6, stir for 18 h, start ee 98.20%
  ee %: 98.15%
[1]; 45-50° C. MeOH, pH 6-7, stir for 18 h, start ee 98.20%
  ee %: 78.95%
[1]; I-1 after SFC preparation
  ee % before concentration: ee % 98.43%
[1]; I-1 from Prep-HPLC
  ee % before concentration: ee % 98.20%
[1]; dependence on pH
  stability of compound I-1 solution: stable when pH at 4˜5
[1]; over 18 h at 20-25° C. with pH 6-7
  ee % of the product after stirring: 97.64%
[1]; over 18 h at 45-50° C. with pH 5-6
  ee % of the product after stirring: 98.15%
[1]; over 18 h at 45-50° C. with pH 6-7
  ee % of the product after stirring: 78.95%
[1]; over 20 h at 10-20° C. with pH 4
  stability after stirring: stable
[1]; over 20 h at 40-50° C. with pH 4, from 98.43%
  ee % after stirring: 98.16%
[2]
  XRPD peak intensity after dry grinding: slightly decreased
[2]; Dry grinding for 1 min
  XRPD: No form and crystallinity change,
[2]; mortar and pestle 1, 3 and 5 min
  form change on grinding (XRPD): no form change
[3]; 1,4-dioxane, organic solvent or mixture, thermodynamic from solid, 1,4-Dioxane, polymorph screening batch
  Solubility: 29 to 33 mg/mL (≈ 47.6 to 54.2 mM)
[3]; 2-MeTHF, organic solvent or mixture, thermodynamic from solid, polymorph screening batch
  Solubility: 5 to 6 mg/mL (≈ 8.21 to 9.85 mM)
[3]; acetone, organic solvent or mixture, thermodynamic from solid, polymorph screening batch
  Solubility: 43 to 52 mg/mL (≈ 70.6 to 85.4 mM)
[3]; acetone, organic solvent or mixture, thermodynamic from solid, starting material for salt screening
  Solubility: 12 to 17 mg/mL
[3]; acetonitrile, organic solvent or mixture, thermodynamic from solid, polymorph screening batch
  Solubility: 10 to 11 mg/mL (≈ 16.4 to 18.1 mM)
[3]; acetonitrile, organic solvent or mixture, thermodynamic from solid, starting material for salt screening
  Solubility: 10 to 17 mg/mL
[3]; anisole, organic solvent or mixture, thermodynamic from solid, polymorph screening batch
  Solubility: < 5 mg/mL
[3]; benzyl alcohol, organic solvent or mixture, thermodynamic from solid, polymorph screening batch
  Solubility: 16 to 18 mg/mL (≈ 26.3 to 29.6 mM)
[3]; chloroform, organic solvent or mixture, thermodynamic from solid, polymorph screening batch
  Solubility: < 5 mg/mL
[3]; dichloromethane, organic solvent or mixture, thermodynamic from solid, polymorph screening batch
  Solubility: < 5 mg/mL
[3]; dichloromethane, organic solvent or mixture, thermodynamic from solid, starting material for salt screening
  Solubility: < 5 mg/mL
[3]; ethanol, organic solvent or mixture, thermodynamic from solid, polymorph screening batch
  Solubility: 6 to 7 mg/mL (≈ 9.85 to 11.5 mM)
[3]; ethanol, organic solvent or mixture, thermodynamic from solid, starting material for salt screening
  Solubility: < 5 mg/mL
[3]; ethyl acetate, organic solvent or mixture, thermodynamic from solid, polymorph screening batch
  Solubility: 6 to 7 mg/mL (≈ 9.85 to 11.5 mM)
[3]; heptane, organic solvent or mixture, thermodynamic from solid, polymorph screening batch
  Solubility: < 5 mg/mL
[3]; isopropanol, organic solvent or mixture, thermodynamic from solid, polymorph screening batch
  Solubility: < 5 mg/mL
[3]; isopropanol, organic solvent or mixture, thermodynamic from solid, starting material for salt screening
  Solubility: < 5 mg/mL
[3]; isopropyl acetate, organic solvent or mixture, thermodynamic from solid, polymorph screening batch
  Solubility: < 5 mg/mL
[3]; isopropyl acetate, organic solvent or mixture, thermodynamic from solid, starting material for salt screening
  Solubility: < 5 mg/mL
[3]; methanol, organic solvent or mixture, thermodynamic from solid, polymorph screening batch
  Solubility: 15 to 17 mg/mL (≈ 24.6 to 27.9 mM)
[3]; methanol, organic solvent or mixture, thermodynamic from solid, starting material for salt screening
  Solubility: 12 to 17 mg/mL
[3]; methyl ethyl ketone, organic solvent or mixture, thermodynamic from solid, polymorph screening batch
  Solubility: 26 to 28 mg/mL (≈ 42.7 to 46 mM)
[3]; methyl ethyl ketone, organic solvent or mixture, thermodynamic from solid, starting material for salt screening
  Solubility: 12 to 17 mg/mL
[3]; nitromethane, organic solvent or mixture, thermodynamic from solid, Nitromethane (NM), polymorph screening batch
  Solubility: 7 to 8 mg/mL (≈ 11.5 to 13.1 mM)
[3]; t-butyl methyl ether, organic solvent or mixture, thermodynamic from solid, polymorph screening batch
  Solubility: < 5 mg/mL
[3]; tetrahydrofuran, organic solvent or mixture, thermodynamic from solid, polymorph screening batch
  Solubility: 52 to 65 mg/mL (≈ 85.4 to 107 mM)
[3]; tetrahydrofuran, organic solvent or mixture, thermodynamic from solid, starting material for salt screening
  Solubility: 33 to 64 mg/mL
[3]; toluene, organic solvent or mixture, thermodynamic from solid, polymorph screening batch
  Solubility: < 5 mg/mL
[3]; trifluoroethanol, organic solvent or mixture, thermodynamic from solid, starting material for salt screening
  Solubility: 12 to 17 mg/mL
[3]; water, thermodynamic from solid, polymorph screening batch
  Solubility: < 5 mg/mL
[3]; water, thermodynamic from solid, starting material for salt screening
  Solubility: < 5 mg/mL
[4]; ethanol and water
  form change on granulation simulation (XRPD): no form change
[4]; granulation simulation with Ethanol
  XRPD: No form and crystallinity change
[4]; granulation simulation with water
  XRPD: No form and crystallinity change
